Data as given in patent US7741529B1, “Transgenic animal model for catecholaminergic polymorphic ventricular tachycardia (CPVT) and use thereof” (priority 2006, dated 2010).
Marks after values point to notes of the source that are not given here.

Tests used:
Assay type in all cases: in vivo, mouse
RyR2^+/RyR^R4496C mice [1] = assay: Epinephrine and caffeine arrhythmia induction after propranolol pretreatment (continuous ECG monitoring)
Experimental: Arrhythmias were defined as follows: non sustained ventricular tachycardia (VTns) was defined as a series of 4 to 10 consecutive repetitive ventricular ectopic beats (VEBs), sustained VT (VTsust) was defined as a run of >10 consecutive VEBs, ventricular fibrillation (VF) was defined as a VTsust degenerating into ventricular fibrillation leading to sudden death.
(§1) ECG radiotelemetry monitors (Data Sciences International) were implanted intraabdominally under general anaesthesia (Avertin […]). Body temperature was maintained at 37° C. by use of a thermally controlled heating pad (Harvard Apparatus). ECG was continuously monitored starting 48 h after surgery. After 72 hours of recovery from surgery phenotype characterization was performed.
(§2) One group (Group 1) of animals exercised on a treadmill until exhaustion. The animals were then injected with epinephrine 2 mg/kg i.p. (WT n=12, RyR2^+/RyR^R4496C n=14). A second group of animals (Group 2) was injected with epinephrine (2 mg/kg ip) and caffeine (120 mg/kg i.p.) (WT, n=8, RyR2^+/RyR^R4496C, n=7). ECG monitoring was performed continuously during both exercise and drug testing protocols. Five additional RyR2^+/RyR^R4496C animals were treated for 24 hours with propranolol i.p. (2 mg/Kg) every 12 hours before being exposed to the epinephrine and caffeine protocol.
Among the RyR2^+/RyR^R4496C mice 4/8 or 50% developed sustained arrhythmias (VTsust n=2; FIG. 4 panel B and VF n=2; FIG. 5 panel B p=0.02 versus WT; Table I).
(§3) Five RyR2^+/RyR^R4496C mice were treated with propranolol to evaluate if antiadrenergic compounds could prevent induction of arrhythmias. After drug administration we observed a prolongation of RR interval from 94.5±13 to 118±13 msec […] (p<0.001). […] Despite pretreatment with betablockers, the administration of caffeine and epinephrine elicited VTsust in 2 and VF in 2 (sustained arrhythmias in 4 mice); only one mouse had no arrhythmias (p=0.56; i.e. non significant versus RyR2+/RyR^R4496C mice).

WT mice = assay: ECG radiotelemetry: effect of betablockers on RR interval in WT mice
RyR2^+/RyR^R4496C mice [2] = assay: ECG radiotelemetry: effect of propranolol on RR and QT interval in RyR2+/RyRR4496C mice
Experimental: The cardiac activity in transgenic animals is preferably measured by continuous ECG monitoring. ECG radiotelemetry monitors (Data Sciences International) are typically implanted intraabdominally under general anaesthesia. After recovery from surgery the electrocardiographic signal is recorded continuously in conscious animal kept in special cages provided with receivers and connected to a A/D converted an a PC for data storage. Off-line analyses of stored ECGs parameters comprise: quantification of arrhythmias, heart rate trends, heart rate variability assessment (power spectrum analysis), QT interval and T wave assessments. Other parameters of cardiac functionality measurable by ECG are the following: baseline QT interval (measured using the tangent method^23), RR interval, RR variability.
as §1, §2, §3

[3] = 5 pretreated mice, epinephrine 2 mg/kg i.p. and caffeine 120 mg/kg i.p.
[4] = Group 2, N=5, epinephrine and caffeine i.p.

Question: What does the source list for CC(C)NCC(O)COc1cccc2ccccc12 (stereo not shown) [propranolol]?
Answer: number of mice with VF (RyR2^+/RyR^R4496C mice [1]; [3]): 2; number of mice with VTsust (RyR2^+/RyR^R4496C mice [1]; [3]): 2; number of mice with no arrhythmias (RyR2^+/RyR^R4496C mice [1]; 5 pretreated mice, epinephrine and caffeine): one; sustained arrhythmias (number of mice) (RyR2^+/RyR^R4496C mice [1]; 5 pretreated mice, epinephrine and caffeine, p=0.56 versus untreated RyR2+/RyR^R4496C mice): 4 mice; All VT/VF (sum of animals experiencing VTns or VTsust or VF) (RyR2^+/RyR^R4496C mice [1]; [4]): 4; VTns (number of animals) (RyR2^+/RyR^R4496C mice [1]; [4]): 0; VTsust & VF (number of animals) (RyR2^+/RyR^R4496C mice [1]; [4]): 4; prevention of arrhythmias (in words) (RyR2^+/RyR^R4496C mice [1]; RyR2^+/RyR^R4496C mice): not effective in preventing arrhythmias; percentage of RR change after betablockers (Δ%=ΔRR*100/RR baseline) (WT mice; WT mice): 27±5%; mean prolongation of RR interval (WT mice; WT mice after betablockers): 22.92 ± 3.6 ms; Baseline RR (RyR2^+/RyR^R4496C mice [2]; Group 2, N=5, beta blockade, p=0.0001 vs untreated RyR2^+/RyR^R4496C): 121 + 23*; Baseline QT (RyR2^+/RyR^R4496C mice [2]; Group 2, N=5, beta blockade, tangent method, ANOVA P=0.966): 23 + 0.2§; RR interval (in words) (RyR2^+/RyR^R4496C mice [2]; RyR2^+/RyR^R4496C animals pretreated with betablockers, Group 2): significantly prolonged; mean prolongation of RR interval (RyR2^+/RyR^R4496C mice [2]; RyR2^+/RyR^R4496C mice after betablockers, p=0.69 vs WT): 23.62 ± 0.14 ms; percentage of RR change after betablockers (Δ%=ΔRR*100/RR baseline) (RyR2^+/RyR^R4496C mice [2]; RyR2^+/RyR^R4496C mice, p=0.52 vs WT): 25±3%; RR interval after drug administration (RyR2^+/RyR^R4496C mice [2]; five RyR2^+/RyR^R4496C mice, propranolol i.p. 2 mg/Kg every 12 hours for 24 hours, prolongation from 94.5±13, p<0.001): 118 ± 13 ms
